# Laboratory results from patent US10294202B2, “Pyrrolidinones as herbicides” (FMC Corporation, priority 2013, dated 2019).
# Read-outs that look alike come from different tables or passages of the source.
# What was measured:
# [1] = tested on: giant foxtail; assay: Test A pre-/postemergence herbicide test; assay type: in vivo, Setaria faberii
# Summary of the method: (§1)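 Seeds in loam–sand blend received preemergence directed soil spray; separately, plants 2–10 cm at one- to two-leaf stage received postemergence spray, both with test chemicals in non-phytotoxic solvent with surfactant. After ~10 days in greenhouse, injury rated visually against untreated controls, 0 (no effect) to 100 (complete control).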
# [2] = tested on: wheat; assay: Test A pre-/postemergence herbicide test; assay type: in vivo, Triticum aestivum
# Summary of the method: as §1
# [3] = tested on: barnyardgrass; assay: Test B flooded paddy test; assay type: in vivo, Echinochloa crus-galli; details: Flood, scale of 0 to 100 where 0 is no effect and 100 is complete control
# Summary of the method: (§2)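 Scored visually 0–100 (0 no effect, 100 complete control) versus controls after 13 to 15 greenhouse days. Treatment: compound added to paddy water kept 3 cm above soil, on 2-leaf-stage plants.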
# [4] = tested on: pigweed; assay: Test A pre-/postemergence herbicide test; assay type: in vivo, Amaranthus retroflexus
# Summary of the method: as §1
# [5] = tested on: corn; assay: Test A pre-/postemergence herbicide test; assay type: in vivo, Zea mays
# Summary of the method: as §1
# [6] = tested on: rice; assay: Test B flooded paddy test; assay type: in vivo, Oryza sativa; details: Flood, scale of 0 to 100 where 0 is no effect and 100 is complete control
# Summary of the method: as §2
# [7] = tested on: morningglory; assay: Test A pre-/postemergence herbicide test; assay type: in vivo, Ipomoea spp.
# Summary of the method: as §1
# [8] = tested on: crabgrass, large; assay: Test A pre-/postemergence herbicide test; assay type: in vivo, Digitaria sanguinalis
# Summary of the method: as §1
# [9] = tested on: ducksalad; assay: Test B flooded paddy test; assay type: in vivo, Heteranthera limosa; details: Flood, scale of 0 to 100 where 0 is no effect and 100 is complete control
# Summary of the method: as §2
# [10] = tested on: sedge, umbrella; assay: Test B flooded paddy test; assay type: in vivo, Cyperus difformis; details: Flood, scale of 0 to 100 where 0 is no effect and 100 is complete control
# Summary of the method: as §2
# [11] = tested on: velvetleaf; assay: Test A pre-/postemergence herbicide test; assay type: in vivo, Abutilon theophrasti
# Summary of the method: as §1
# [12] = tested on: barnyardgrass; assay: Test A pre-/postemergence herbicide test; assay type: in vivo, Echinochloa crus-galli
# Summary of the method: as §1
# [13] = Preemergence, 125 g ai/ha, visual rating on 0 to 100 scale (0 no effect, 100 complete control)
# [14] = Postemergence, 125 g ai/ha, 0 to 100 scale, 0 is no effect, 100 is complete control
# [15] = Postemergence, 500 g ai/ha, 0 to 100 scale (0 no effect, 100 complete control)
# [16] = Preemergence, 125 g ai/ha, 0 to 100 scale where 0 is no effect and 100 is complete control
# [17] = preemergence, 500 g ai/ha, 0 to 100 scale, 0 is no effect and 100 is complete control
compound,measurement,setting,value
"O=C1NCC(c2ccc(F)c(Cl)c2)C1C(=O)Nc1ccccc1C(F)(F)F (stereo not drawn) [Compound 74, 4-(3-chloro-4-fluorophenyl)-2-oxo-N-[2-(trifluoromethyl)phenyl]-3-pyrrolidinecarboxamide]","Foxtail, Giant plant response rating",[1]; [13],90
same,pest or weed control at 125 g/ha,"[1]; Setaria faberi, post-emergence, 240 h, Postemergence, 125 g ai/ha, 0 to 100 scale, 0 no effect, 100 complete control, read-out: Plant response rating, Foxtail, Giant",80%
same,pest or weed control at 500 g/ha,"[1]; Setaria faberi, post-emergence, 240 h, Postemergence, 500 g ai/ha, 0 to 100 scale (0 no effect, 100 complete control), read-out: Plant response rating, Foxtail, Giant",90%
same,pest or weed control at 500 g/ha,"[1]; Setaria faberi, pre-emergence, 240 h, preemergence, 500 g ai/ha, 0 to 100 scale, read-out: Plant response rating, Foxtail, Giant",90%
same,Wheat plant response rating,[2]; [13],0
same,plant injury at 125 g/ha,"[2]; Triticum aestivum, post-emergence, 240 h, Postemergence, 125 g ai/ha, 0 to 100 scale, 0 no effect, 100 complete control, read-out: Plant response rating, Wheat",0%
same,plant injury at 500 g/ha,"[2]; Triticum aestivum, post-emergence, 240 h, Postemergence, 500 g ai/ha, 0 to 100 scale (0 no effect, 100 complete control), read-out: Plant response rating, Wheat",60%
same,plant injury at 500 g/ha,"[2]; Triticum aestivum, pre-emergence, 240 h, preemergence, 500 g ai/ha, 0 to 100 scale, read-out: Plant response rating, Wheat",0%
same,"Plant response rating, Barnyardgrass",[3]; 250 g ai/ha,0
same,pest or weed control at 125 g/ha,"[4]; Amaranthus retroflexus, post-emergence, 240 h, Postemergence, 125 g ai/ha, 0 to 100 scale, 0 no effect, 100 complete control, read-out: Plant response rating, Pigweed",0%
same,pest or weed control at 500 g/ha,"[4]; Amaranthus retroflexus, post-emergence, 240 h, Postemergence, 500 g ai/ha, 0 to 100 scale (0 no effect, 100 complete control), read-out: Plant response rating, Pigweed",0%
same,pest or weed control at 500 g/ha,"[4]; Amaranthus retroflexus, pre-emergence, 240 h, preemergence, 500 g ai/ha, 0 to 100 scale, read-out: Plant response rating, Pigweed",50%
same,Pigweed plant response rating,[4]; [13],0
same,Corn plant response rating,[5]; [13],0
same,"Corn plant response rating (crop injury, 0 = no effect, 100 = complete kill) at 125 g/ha","[5]; Zea mays, post-emergence, 240 h, Postemergence, 125 g ai/ha, 0 to 100 scale, 0 no effect, 100 complete control",0%
same,"Corn plant response rating (crop injury, 0 = no effect, 100 = complete kill) at 500 g/ha","[5]; Zea mays, post-emergence, 240 h, Postemergence, 500 g ai/ha, 0 to 100 scale (0 no effect, 100 complete control)",50%
same,"Corn plant response rating (crop injury, 0 = no effect, 100 = complete kill) at 500 g/ha","[5]; Zea mays, pre-emergence, 240 h, preemergence, 500 g ai/ha, 0 to 100 scale",0%
same,"Plant response rating, Rice",[6]; 250 g ai/ha,0
same,pest or weed control at 125 g/ha,"[7]; Ipomoea, post-emergence, 240 h, Postemergence, 125 g ai/ha, 0 to 100 scale, 0 no effect, 100 complete control, read-out: Plant response rating, Morningglory",0%
same,pest or weed control at 500 g/ha,"[7]; Ipomoea, post-emergence, 240 h, Postemergence, 500 g ai/ha, 0 to 100 scale (0 no effect, 100 complete control), read-out: Plant response rating, Morningglory",0%
same,pest or weed control at 500 g/ha,"[7]; Ipomoea, pre-emergence, 240 h, preemergence, 500 g ai/ha, 0 to 100 scale, read-out: Plant response rating, Morningglory",0%
same,Morningglory plant response rating,[7]; [13],0
same,pest or weed control at 125 g/ha,"[8]; Digitaria sanguinalis, post-emergence, 240 h, Postemergence, 125 g ai/ha, 0 to 100 scale, 0 no effect, 100 complete control, read-out: Plant response rating, Crabgrass, Large",80%
same,pest or weed control at 500 g/ha,"[8]; Digitaria sanguinalis, post-emergence, 240 h, Postemergence, 500 g ai/ha, 0 to 100 scale (0 no effect, 100 complete control), read-out: Plant response rating, Crabgrass, Large",90%
same,pest or weed control at 500 g/ha,"[8]; Digitaria sanguinalis, pre-emergence, 240 h, preemergence, 500 g ai/ha, 0 to 100 scale, read-out: Plant response rating, Crabgrass, Large",90%
same,"Crabgrass, Large plant response rating",[8]; [13],90
same,"Plant response rating, Ducksalad",[9]; 250 g ai/ha,90
same,"Plant response rating, Sedge, Umbrella",[10]; 250 g ai/ha,0
same,pest or weed control at 125 g/ha,"[11]; Abutilon theophrasti, post-emergence, 240 h, Postemergence, 125 g ai/ha, 0 to 100 scale, 0 no effect, 100 complete control, read-out: Plant response rating, Velvetleaf",30%
same,pest or weed control at 500 g/ha,"[11]; Abutilon theophrasti, post-emergence, 240 h, Postemergence, 500 g ai/ha, 0 to 100 scale (0 no effect, 100 complete control), read-out: Plant response rating, Velvetleaf",50%
same,pest or weed control at 500 g/ha,"[11]; Abutilon theophrasti, pre-emergence, 240 h, preemergence, 500 g ai/ha, 0 to 100 scale, read-out: Plant response rating, Velvetleaf",0%
same,Velvetleaf plant response rating,[11]; [13],0
same,pest or weed control at 125 g/ha,"[12]; Echinochloa crus-galli, post-emergence, 240 h, Postemergence, 125 g ai/ha, 0 to 100 scale, 0 no effect, 100 complete control, read-out: Plant response rating, Barnyardgrass",60%
same,pest or weed control at 500 g/ha,"[12]; Echinochloa crus-galli, post-emergence, 240 h, Postemergence, 500 g ai/ha, 0 to 100 scale (0 no effect, 100 complete control), read-out: Plant response rating, Barnyardgrass",80%
same,pest or weed control at 500 g/ha,"[12]; Echinochloa crus-galli, pre-emergence, 240 h, preemergence, 500 g ai/ha, 0 to 100 scale (0 no effect, 100 complete control), read-out: Plant response rating, Barnyardgrass",90%
same,Barnyardgrass plant response rating,[12]; [13],60
O=C1NCC(c2ccc(C(F)(F)F)c(F)c2)C1C(=O)Nc1ccccc1C(F)(F)F (racemic) [Compound 248],"Plant response rating, Foxtail, Giant",[1]; [14],30
same,"Plant response rating, Foxtail, Giant",[1]; [15],50
same,"Plant response rating, Foxtail, Giant",[1]; [16],80
same,"Plant response rating, Foxtail, Giant",[1]; [17],90
same,"Plant response rating, Wheat",[2]; [14],0
same,"Plant response rating, Wheat",[2]; [15],0
same,"Plant response rating, Wheat",[2]; [16],0
same,"Plant response rating, Wheat",[2]; [17],0
same,"Plant response rating, Barnyardgrass",[3]; 1000 g ai/ha,55
same,"Plant response rating, Pigweed",[4]; [14],0
same,"Plant response rating, Pigweed",[4]; [15],0
same,"Plant response rating, Pigweed",[4]; [16],0
same,"Plant response rating, Pigweed",[4]; [17],0
same,"Plant response rating, Corn",[5]; [14],0
same,"Plant response rating, Corn",[5]; [15],20
same,"Plant response rating, Corn",[5]; [16],0
same,"Plant response rating, Corn",[5]; [17],0
same,"Plant response rating, Rice",[6]; 1000 g ai/ha,0
same,"Plant response rating, Morningglory",[7]; [14],0
same,"Plant response rating, Morningglory",[7]; [15],0
same,"Plant response rating, Morningglory",[7]; [16],0
same,"Plant response rating, Morningglory",[7]; [17],0
same,"Plant response rating, Crabgrass, Large",[8]; [14],50
same,"Plant response rating, Crabgrass, Large",[8]; [15],70
same,"Plant response rating, Crabgrass, Large",[8]; [16],90
same,"Plant response rating, Crabgrass, Large",[8]; [17],90
same,"Plant response rating, Ducksalad",[9]; 1000 g ai/ha,95
same,"Plant response rating, Sedge, Umbrella",[10]; 1000 g ai/ha,0
same,"Plant response rating, Velvetleaf",[11]; [14],0
same,"Plant response rating, Velvetleaf",[11]; [15],0
same,"Plant response rating, Velvetleaf",[11]; [16],0
same,"Plant response rating, Velvetleaf",[11]; [17],0
same,"Plant response rating, Barnyardgrass",[12]; [14],20
same,"Plant response rating, Barnyardgrass",[12]; [15],50
same,"Plant response rating, Barnyardgrass",[12]; [16],30
same,"Plant response rating, Barnyardgrass",[12]; [17],80
